These are literature values, as cited in patent US20040034083A1, “Combination therapy for the treatment of Parkinson's disease with cyclooxygenase-2 (COX2) inhibitor(s)” (priority 2002, published 2004).

The conditions of data set [1]: levodopa/carbidopa therapy of PD.

Consider `N[C@@H](Cc1ccc(O)c(O)c1)C(=O)O` [levodopa], for which the “fraction of levodopa that reaches the brain” value (levodopa alone administered orally) is recorded as “about 1%”. Also, the “fraction of orally administered levodopa metabolized by decarboxylase (then unable to cross the BBB)” value (oral administration, without carbidopa) was “Up to 99%”. Further, in data set [1], the “duration of effectiveness after initiation of therapy” value is given as “about 5 years”.
